Measurements as given in article PMC12125541, “Timed chromatin invasion during mitosis governs prototype foamy virus integration site selection and infectivity” (Nucleic Acids Research, 2025).
* marks the point of attachment. Biotin = O=C1N[C@H]2[C@H](CS[C@H]2CCCCC(=O)*)N1

Assays:
recombinant NCPs [1] = assay: Streptavidin pull-down of recombinant nucleosomes with biotinylated Gag CBS peptides; type: binding, human; conditions: 2 h at 4°C; for pull-down of nucleosomes: 75–150 mM NaCl, 1.5 μg biotinylated peptide, 3 μg NCP, Coomassie gel
Text: Recombinant nucleosome core particles (NCPs) (mono-nucleosomes) were assembled as previously described. Briefly, individual human histones H2A, H2B, H3, and H4 were purchased (The Histone Source; Colorado State University) and octamers were assembled by dialysis. The Widom-601 DNA [25] was generated by restriction enzyme digestion of a concatenated construct and purified by anion exchange chromatography onto a POROS-HQ column. NCPs were assembled with a ratio 1.1:1 (1.1 octamer:1 DNA) by successive steps of salt dialysis against TEN buffer (0–2 M NaCl, 10 mM Tris, pH 7.5, 1 mM ethylenediaminetetraacetic acid, 1 mM Dithiothreitol (DTT)). NCPs were kept at −80°C in 0 mM NaCl TEN buffer.
Twenty microliters of streptavidin beads (Dynabeads™ MyOne™ Streptavidin T1; Invitrogen; Thermo Fisher Scientific) were used per condition. StreptaBeads were washed twice with pull-down buffer (20 mM Tris–HCl, pH 7.5, 0.1% NP-40, 10% glycerol, 75–150 mM NaCl, 0.5 mM DTT, and 1 mM Phenylmethylsulfonyl fluoride (PMSF)) containing 75 mM of NaCl and 100 μg of bovine serum albumin (BSA), followed by one wash in the same conditions, without BSA. 1.5 μg of Gag CBS (chromatin binding site) biotinylated peptide and 3 μg of recombinant NCPs were added per condition, in a final volume of 800 μl of pull-down buffer with corresponding NaCl concentrations. The reaction mix was incubated for 2 h on a rotation wheel, at 4°C. Beads were washed three times with the corresponding NaCl concentration buffer, and bound proteins were eluted by the addition of 10 μl of SDS Sample Buffer 2.5×. Samples were separated by sodium dodecyl sulfate–polyacrylamide gel electrophoresis, and analyzed after colloidal Coomassie blue staining.

[2] = system: NCP saturated with H4 tails (H2A–H2B acidic patch); assay: BLI competition: immobilized Gag CBS peptides versus NCP saturated with H4 tails; type: binding, human; conditions: mean of two experiments; for binding to NCP saturated with WT H4 tail: 100 nM NCP pre-incubated with 100 μM H4 WT peptide at least 30 min at room temperature
Procedure: Quantitative interaction experiments were performed by biolayer interferometry (BLI), using a BLItz instrument (Octet® N1; Sartorius). Two different runs were performed: the first one, into water, to coat biosensors with biotinylated peptides (Table 1) and the second, into Blitz buffer [1× phosphate buffer saline, pH 7.4, 0.02% (v/v) Tween 20, 0.1% (w/v) BSA], to fix NCPs on immobilized peptides. All steps were performed under 2200 rpm shaking speed. Streptavidin biosensors (Octet®SA Biosensors; Reference 18-0009; Sartorius) were first pre-wet for at least 10 min with water. The baseline, with only water, was measured for 60 s. Ten micromolar Gag CBS biotinylated peptides (or H4 biotinylated peptides), diluted in water, were loaded onto the biosensors, for 180 s, to reach a binding of ∼1.5 nm, followed by a dissociation step of 180 s. Following the first run, coated biosensors were equilibrated for at least 10 min in Blitz buffer. The second run started with 60 s of baseline, followed by the association step, where biosensors were dipped into serial dilutions of NCPs (10, 25, 50, or 100 nM), for 300 s. Finally, the dissociation step was performed in Blitz buffer, for 300 s. For competition experiments, the second run started with 60 s of baseline in Blitz buffer, followed by 300 s of association step. During this step, solutions of 100 nM of NCPs were pre-incubated with or without 100 μM of H4 peptide [wild type (WT) or mutant, non-biotinylated], in Blitz buffer, for at least 30 min at room temperature. Finally, the dissociation step was performed in Blitz buffer, for 180 s. Nonspecific binding controls were performed, such as binding of 100 nM of NCPs on biosensors without biotinylated peptides loaded, as well as binding of Blitz buffer on loaded biosensors. For each time point measured, data of this second control (binding of Blitz buffer on biosensors loaded with biotinylated Gag WT peptide) were subtracted to every condition and were plotted on curves, using Prism 9 software.

recombinant NCPs [3] = assay: BLI of immobilized biotinylated peptides with recombinant NCP; type: binding, human; conditions: for BLI interaction with nucleosomes: peptide on streptavidin biosensor, NCP 10, 25, 50 or 100 nM, 1× PBS pH 7.4, 0.02% Tween 20, 0.1% BSA, representative of three experiments
Text: Recombinant nucleosome core particles (NCPs) (mono-nucleosomes) were assembled as previously described [13]. Briefly, individual human histones H2A, H2B, H3, and H4 were purchased (The Histone Source; Colorado State University) and octamers were assembled by dialysis. The Widom-601 DNA [25] was generated by restriction enzyme digestion of a concatenated construct and purified by anion exchange chromatography onto a POROS-HQ column. NCPs were assembled with a ratio 1.1:1 (1.1 octamer:1 DNA) by successive steps of salt dialysis against TEN buffer (0–2 M NaCl, 10 mM Tris, pH 7.5, 1 mM ethylenediaminetetraacetic acid, 1 mM Dithiothreitol (DTT)). NCPs were kept at −80°C in 0 mM NaCl TEN buffer.
Quantitative interaction experiments were performed by biolayer interferometry (BLI), using a BLItz instrument (Octet® N1; Sartorius). Two different runs were performed: the first one, into water, to coat biosensors with biotinylated peptides (Table 1) and the second, into Blitz buffer [1× phosphate buffer saline, pH 7.4, 0.02% (v/v) Tween 20, 0.1% (w/v) BSA], to fix NCPs on immobilized peptides. All steps were performed under 2200 rpm shaking speed. Streptavidin biosensors (Octet®SA Biosensors; Reference 18-0009; Sartorius) were first pre-wet for at least 10 min with water. The baseline, with only water, was measured for 60 s. Ten micromolar Gag CBS biotinylated peptides (or H4 biotinylated peptides), diluted in water, were loaded onto the biosensors, for 180 s, to reach a binding of ∼1.5 nm, followed by a dissociation step of 180 s. Following the first run, coated biosensors were equilibrated for at least 10 min in Blitz buffer. The second run started with 60 s of baseline, followed by the association step, where biosensors were dipped into serial dilutions of NCPs (10, 25, 50, or 100 nM), for 300 s. […] For each time point measured, data of this second control (binding of Blitz buffer on biosensors loaded with biotinylated Gag WT peptide) were subtracted to every condition and were plotted on curves, using Prism 9 software.

[4] = target: Gag Y537Q biotinylated peptide (PFV Gag CBS Y537Q) (prototype foamy virus (PFV)); assay: BLI; biotinylated Gag CBS peptides on streptavidin biosensors; NCP 10, 25, 50 or 100 nM in solution; 1× PBS pH 7.4, 0.02% Tween 20, 0.1% BSA; BLItz instrument

Substance | pull-down of nucleosomes (recombinant NCPs [1]) | binding to NCP saturated with WT H4 tail [2] | BLI interaction with nucleosomes (recombinant NCPs [3]) | also measured
Biotin-GGQNLRPRTYQPQRYG-OH [Y537Q CBS peptide, Biotinylated PFV Gag CBS peptide with Tyr537Gln substitution] | affected nucleosome interaction, though largely in a salt-independent manner | unable to effectively compete | – | binding to NCP saturated with H4 mut tail ([2]; 100 nM NCP pre-incubated with 100 μM H4 mut peptide at least 30 min at room temperature): unable to effectively compete
Biotin-GGYNLQPRTYQPQRYG-OH [R540Q CBS peptide, Biotinylated PFV Gag CBS peptide with Arg540Gln substitution] | – | no interaction with the NCP | almost complete reduction | pull-down of nucleosomes, physiological salt (recombinant NCPs [1]; 125–150 mM NaCl): virtually eliminated binding; pull-down of nucleosomes, hypotonic conditions (recombinant NCPs [1]; low salt (below 125 mM NaCl)): reduced binding
Biotin-GGYNLRPRTYQPQRYG-OH [WT CBS peptide] | efficiently pulled down nucleosomes across tested salt concentrations | reached the same level as without H4 tails | strongest BLI interaction | –
Biotin-SGRGKGGKGLGKGGAKRHAAVLA-OH [H4 mut, reference compound] | – | – | – | binding of H4 tail peptide to purified NCPs (recombinant NCPs [3]; BLI, immobilized H4 peptide, Supplementary Fig. S7): retains some residual binding
Recombinant nucleosome core particle (human histone octamer on Widom-601 DNA) (from UniProt P04908 1-130; P06899 1-126; P68431 1-136; P62805 1-103) (complex) | – | – | – | fold reduction of the BLI interaction against the WT CBS peptide [4]: 5 fold
